Test results: US20090170865A1, “Treatment of Prostate Cancer with Angiogenesis-Targeting Quinazoline-Based Anti-Cancer Compounds” (University of Kentucky Research Foundation, priority 2007, published 2009)
Where two headings read alike, the source gives them in different places.

How the values were obtained:
[1] = tested on: PC-3 cells; settings: for apoptosis induction: 10 μmol/L, 24 h
Experimental: (§1) a) Hoechst Staining. Cells were plated in 6-well culture dishes at 5×10^4 cells per/well and at subconfluency were treated with increasing concentrations of DZ-1-23, -38, -40, -42, and -50 (0-25 μM). After 24 and 48 hrs of treatment, cells were fixed with 4% (w/v) paraformaldehyde (Sigma) and stained with 10 μg/mL Hoechst 33342 (B2261; Sigma) in the presence of 0.1% Triton X-100 (Sigma) as previously described. Cells were visualized using a Zeiss Axiovert S100 fluorescent microscope (Thornwood, N.Y.) with a UV filter (365 nm) and cells with condensed chromatin were designated apoptotic (100× magnification). The apoptotic index was determined by counting three random fields in duplicate wells per group. Each experiment was performed twice. b) MTT assay: Subconfluent cultures of cells were exposed to increasing concentrations of DZ-1-23, -38, -40, -42, and -50 (0-25 μM). After treatment the medium was replaced with 250 μl of MTT (Sigma) (1 mg/ml) and incubated at 37° C. to form blue crystals. After 2 hrs the MTT was removed and replaced with DMSO (250 μl) and incubated overnight at 37° C. The DMSO-crystal solution's absorbance was read at 540 nm in a microplate reader (Bio-Tek Instruments, Winooski, VM). Numerical data represent the average of three independent experiments performed in triplicate. Cell Migration Assay. (Wounding assay) Confluent monolayers of PC-3, DU-145, HUVEC, or HMVEC-L cells were wounded with a toothpick. After wounding, medium was changed and DZ-3 or DZ-50 (5 μM). After incubation for 12 or 24 hrs, wounding areas were examined under light microscopy (Axiovert 10, Zeiss). Cells that had migrated to the wounded areas were counted under a microscope for quantification of cell migration. Migration was calculated as the average number of cells observed in five random high power (400×) wounded fields/per well in duplicate wells. Tube Formation Assay: In vitro Angiogenesis Evaluation: In vitro formation of tubular structures was studied on extracellular matrix using an angiogenesis kit as described by the manufacturer (Chemicon International, Inc., Temecula, Calif.). HUVEC or HMVEC-L (10×10^4 cells/well) of 96-well-plates were seeded onto ECMatrigel-coated wells in the presence or absence of DZ-3 or DZ-50 and VEGF. Cells were treated with cytokines as single agents or each in combination (e.g. DZ-50 and VEGF).

[2] = tested on: endothelial and epithelial cell lines; experiment: Cell viability / cell death evaluation (MTT assay); assay type: cell-based, human
[3] = tested on: HUVEC; experiment: Tube formation assay (in vitro angiogenesis); assay type: cell-based, human; settings: for vascular endothelial cell tube formation: 10 μmol/L, Matrigel, 24 hrs
[4] = tested on: DU-145 cells; settings: non-cytotoxic doses 5 and 10 μM
Experimental: as §1

[5] = tested on: HUVEC, HMVEC-L vascular endothelial cells; settings: non-cytotoxic doses 5 and 10 μM
Experimental: as §1

[6] = tested on: DU-145 cells
Experimental: (§2) Prostate cancer cells PC-3 and DU-145 cells were treated for 3, 6, 9, 12, or 15 hrs with DZ-50 (5 μM) and harvested. 5×10^4 cells were added to each well of a 6-well culture dish coated with either collagen or fibronectin and incubated for 30 min at 37° C. Following incubation cells were fixed and the number of cells/well recorded. Numerical data represent the average of three independent experiments in triplicate.

[7] = tested on: PC-3 cells; settings: 6, 9, and 12 h exposure, 5 and 10 μmol/L
Experimental: as §2

[8] = tested on: PC-3 cells on HMVEC-L monolayer; settings: 6 hrs of exposure, non-cytotoxic doses
Experimental: Sterile (12 mm diameter) glass coverslips were coated with Matrigel (Becton Dickson, Franklin Lakes, N.J.) at a dilution of 1:8 and air dried at room temperature (1 hr). Coverslips received approximately 6.25×10^4 HMVEC-L to form a complete monolayer. The cells were allowed to spread on the Matrigel for 24 hrs prior to the experiment. PC-3 cells were resuspended in EGM-2MV (Cambrex) and added to the HMVEC-L monolayer at a concentration of 8×10^3 cells/coverslip. Co-cultures were incubated at 37° C. at 5% CO2 for 3, 6, 9, 12, and 24 hrs. Prior to the addition of prostate epithelial cells, cells were incubated with the lipophilic tracer 1,1′-dioctadecyl-3,3,3′,3′-tetramethylindocarbocyanine perchlorate (DiI) (Invitrogen, Carlsbad, Calif.) for 20 min at 10 μg/ml to stain cell membranes. To label F-actin, PC-3 cells, or co-cultures of PC-3 cells HMVEC-L were fixed for 10 min at room temperature in 2% paraformaldehyde in PBS, and were permeabilized for 5 min with a buffer containing 15 mM Tris, 120 mM NaCl, 2 mM EDTA, 2 mM EGTA, and 0.5% Triton X-100 (pH 7.4). […] Coverslips were mounted with Vectashield (Vector Laboratories, Burlington, Canada) on glass slides and analyzed with confocal microscopy.

[9] = tested on: CAM blood vessel development; settings: 48 hrs, with VEGF or bFGF
Experimental: Fertilized chicken eggs were incubated at 37° C. At E8 a window was created to allow visualization of the egg shell membrane. 6 mm blank paper discs (BD) were placed on the egg shell membrane along with VEGF (100 ng) or bFGF (100 ng) and DZ-50. The windows were sealed with porous adhesive and allowed to incubate 48 hrs. At E10 the adhesive was removed along with the egg shell membrane to expose the CAM and 4% paraformaldehyde was added. Following excision the number of vessels per CAM was quantified by counting under a dissecting microscope.

[10] = tested on: integrin β1; settings: 10 μmol/L
Experimental: (§3) FACS—Flow Cytometric Analysis: PC-3 cells were treated with DZ-50 (10 μM) and harvested with 0.5 mM EDTA solution. Prostate cancer epithelial cells were then incubated with hanks balanced salt solution (HBSS) supplemented with 2% BSA and 0.01% sodium azide for 30 min at 4° C. Cells were subsequently fixed in 4% (w/v) formaldehyde, washed, and incubated with the designated integrin antibody followed by FITC-conjugated goat anti-mouse secondary. Analysis was performed on a Partec FlowMax (Partec, Munster, Germany).

[11] = tested on: integrins α2, α3, αV, and β3; settings: PC-3 cells, data not shown
Experimental: as §3

[12] = tested on: DU-145 human prostate cancer xenografts; settings: for CD31+ (vascularity) / Ki67 (proliferation index), % / TUNEL (apoptotic index): DU-145 xenograft
Experimental: (§4) Tumorigenicity Studies. Human prostate cells (PC-3 and DU-145) suspended in PBS, were inoculated subcutaneously (s.c.) (2.5×10^6 cells/site) in the flank of male nude mice, 4-6 weeks of age. Tumors were measured every 48 hrs with a digital caliber, and tumor volumes were calculated using the formula length×(width)^2/2. When tumors reached ≈50 mm^3 mice were stratified into treatment groups of 6 mice/treatment. DZ-50 was administered at doses of 50, 100, and 200 mg/kg in 0.5% methylcellulose (w/v)+0.1% Tween-80 (v/v) in water, by oral gavage using a 22-gauge, 1.5-inch gavage needle. Animals were sacrificed after 2 wks of treatment unless otherwise indicated. In a separate experiment human prostate cells (PC-3) were inoculated as described above and dosing began (200 mg/kg) concurrently for 2 wks. Upon termination of the experiment, tumors were surgically excised and tissue specimens were fixed in a 10% (v/v) formalin solution (Sigma) and subsequently embedded in Paraplast X-tra paraffin (VWR). Blocks were sectioned (6 μm) on a Finesse Microtome (ThermoShandon, UK).
(§5) Spontaneous Metastasis Assay: Human prostate cells (PC-3) were injected (2×10^6 cells/80 μl of PBS) in the tail vein of male nude mice, 4-6 wks of age; mice were maintained in a pathogen-free environment. At 10 days post-inoculation, 200 mg/kg of DZ-50 was given daily (via oral gavage as described above). After 2 wks of treatment, DZ-50 treated and vehicle control mice were sacrificed and lungs, spleen, kidneys, and prostate organs were excised and subjected to examination for metastatic tumor lesions. Apoptosis Evaluation Apoptotic cells were detected using the ApopTago Peroxidase In Situ Apoptosis Kit (Chemicon, Temecula, Calif.). Briefly, paraffin-embedded sections were treated with Proteinase K (Dako, Carpinteria, Calif.) and were subsequently incubated with terminal deoxynucleotidyl transferase enzyme. Terminal deoxynucleotidyl transferase-mediated deoxyuridine triphosphate nick end labeling (TUNEL)-positive cells were counted in five different fields (400×) and the apoptotic index was determined based on the number of apoptotic cells over the total number of cells. Vascularity Evaluation: CD31 staining was performed for endothelial cells using enzymatic digestion with Proteinase K (Dako). The primary antibody used was the mouse anti-human CD31 specific for endothelial cells from Dako (overnight incubation at 4° C.). CD31-positive endothelial cells were counted in five different fields (400×). Cell Proliferation Cell proliferation index was evaluated on the basis of Ki67 nuclear antigen immunoreactivity. Following antigen retrieval slides were incubated with an antibody directed against the Ki67 nuclear antigen (AMAC, Westbrook, Mass.). Ki67+ cells were counted from five different fields (400×).

[13] = tested on: PC-3 human prostate cancer xenografts; settings: for CD31+ (vascularity) / Ki67 (proliferation index), % / TUNEL (apoptotic index): PC-3 xenograft
Experimental: as §4, §5

[14] = tested on: PC-3 cells injected in the tail vein; settings: 200 mg/kg p.o. from 10 d postinoculation, 21 days of treatment, vs untreated control mice
Experimental: as §5, with “Vascularity Evaluation: CD31 staining was performed for endothelial cells using enzymatic digestion with Proteinase K (Dako). The primary antibody used was the mouse anti-human CD31 specific for endothelial cells from Dako (overnight incubation at 4° C.).” left out, “Following antigen retrieval slides were incubated with an antibody directed against the Ki67 nuclear antigen (AMAC, Westbrook, Mass.).” left out

[15] = data not shown

SMILES: COc1cc2nc(N3CCN(S(=O)(=O)c4ccc(-c5ccccc5)cc4)CC3)nc(N)c2cc1OC [DZ-3]
- apoptosis induction [1]: trigger apoptotic cell death

SMILES: COc1cc2nc(N3CCN(S(=O)(=O)c4c(C(C)C)cc(C(C)C)cc4C(C)C)CC3)nc(N)c2cc1OC [DZ-10, 2-[4-(2,4,6-triisopropylbenzenesulfonyl)-piperazin-1-yl]-6,7-dimethoxyquinazolin-4-yl-amine]
- effect on cell viability ([2]; negative control compound of the tube formation assay): no effect on cell viability
- vascular endothelial cell tube formation [3]: does not change the ability of HUVEC cells to form multibranched tubular networks

SMILES: CC(C)Oc1cc2nc(N3CCN(S(=O)(=O)c4ccc(-c5ccccc5)cc4)CC3)nc(N)c2cc1OC(C)C [DZ-50]
- prostate cancer epithelial cell migration (DU-145) [4]: significant inhibition
- endothelial cell migration [5]: significant inhibition
- apoptosis induction [1]: not effective at inducing apoptosis
- prostate cancer epithelial cell migration (PC-3) ([1]; non-cytotoxic doses 5 and 10 μM): significant inhibition
- cell viability/cell death ([2]; PC-3 and HMVEC-L cells, 10M, first 24 hrs of treatment): no effect on cell viability/cell death
- cell viability ([2]; endothelial and epithelial cell lines, 24 and 48 hrs, 5-25 μmol/L): reduced cell viability
- attachment of DU-145 cells to fibronectin or collagen [6]: neither fibronectin nor collagen, was significantly inhibited
- attachment of PC-3 cells to fibronectin or collagen [7]: reduced the ability of PC-3 cells to attach to either fibronectin or collagen, but this effect was not statistically significant
- attachment of tumor epithelial cells to an endothelial monolayer [8]: significantly inhibited
- tube formation in the presence of VEGF ([3]; 10 μmol/L with VEGF): VEGF cannot reverse the antiangiogenic effect
- vascular endothelial cell tube formation [3]: significantly inhibited
- angiogenesis/vascularity (number of blood vessels per CAM) [9]: significant suppression of angiogenesis/vascularity
- integrin β1 expression intensity ([10]; DU-145 cells, 12 h): significantly smaller shift
- integrin β1 surface expression ([10]; PC-3 cells, 12-24 hrs): undetectable
- surface expression of integrins α2, α3, αV, and β3 [11]: did not effect the surface expression
- CD31+ (vascularity) ([12]; 100 mg/kg): 15.1 ± 0.7
- Ki67 (proliferation index), % ([12]; 100 mg/kg): 53.9%
- TUNEL (apoptotic index) ([12]; 100 mg/kg): 3.5 ± 1.0
- CD31+ (vascularity) ([12]; 200 mg/kg): 10.1 ± 0.4
- Ki67 (proliferation index), % ([12]; 200 mg/kg): 49.7%
- TUNEL (apoptotic index) ([12]; 200 mg/kg): 3.4 ± 1.2
- tumor volume ([12]; DU-145 xenografts, 200 mg/kg p.o., 14 d after palpable tumor formation): significant reduction in tumor volume
- prostate tumor development (growth initiation) ([13]; PC-3 inoculation with simultaneous treatment, 200 mg/kg p.o., 2 wks): dramatically suppressed
- CD31+ (vascularity) ([13]; 100 mg/kg): 13.5 ± 1.9
- Ki67 (proliferation index), % ([13]; 100 mg/kg): 42.6%
- TUNEL (apoptotic index) ([13]; 100 mg/kg): 2.0 ± 0.8
- CD31+ (vascularity) ([13]; 200 mg/kg): 6.5 ± 0.6
- Ki67 (proliferation index), % ([13]; 200 mg/kg): 45.0%
- TUNEL (apoptotic index) ([13]; 200 mg/kg): 1.4 ± 0.4
- tumor volume ([13]; PC-3 xenografts, 200 mg/kg p.o., 14 d after palpable tumor formation): significant reduction in tumor volume
- number of metastatic foci to the lungs [14]: significant reduction
- gross and histological examination of lung, liver, spleen, and prostate ([15]; compared to control animals): no apparent changes
- animal's behavioral pattern and weight [15]: no change
